Tests used:
Type in all cases: in vivo, rat
Male Wistar rats [1] = assay: Y-maze short term memory test (spontaneous alternation), MK-801 induced memory loss
Experimental: (§1) Male Wistar rats were purchased from Taconic, Denmark. Animal weight was close to 300 g. The animals were singly housed. Food and water was available ad libitum.
Spontaneous alternation. A Y-maze was used to assess (without food deprivation or other aversive procedures) the normal navigation behaviors of rodents. All arm entries are sequentially scored so that the total number of arm entries, as well as the sequence of entries, are recorded. Data are analyzed to determine the number of arm entries without repetition.
On the day of testing, the rats are given subcutaneous injection of either vehicle (n=9), 0.1 mg/kg MK-801 (n=8) or 0.1 mg/kg MK-801 (also known as Dizocilpine) and the CPT-1 inhibitor Etomoxir 1 mg/kg (1 mg/ml etomoxir ester dilution in olive oil, n=5) 1 hour before the testing (to avoid the MK-801 induced hyperactivity).

Male Wistar rats [2] = assay: Passive avoidance test (long term memory), MK-801 induced memory loss; settings: retention test 24 h later
Source text: as §1
In order to test long term memory, a passive avoidance apparatus was used. The passive avoidance apparatus consist of 2 compartments: a white compartment and a black compartment, which are separated by guillotine doors. There is a lamp hanging 10 cm above the white compartment and there is a lid covering the black compartment. The black compartment contains a stainless steel grid floor.
The test was performed in the lab where the rats normally live, and all the rats were present in the room all the time during the experiment. The apparatus was placed a little bit above the floor on 2 cages. The electrical current strength was adjusted to 0.36 mA and the duration was 5 sec. […] All the rats are weighted one day before the experiment, the concentration of MK-801 per mean body weight is calculated and the dilutions are prepared
The rats are given subcutaneous injection of either vehicle (n=4), 0.1 mg/kg MK-801 (n=8) or 0.1 mg/kg MK-801 and etomoxir 1 mg/kg (1 mg/ml etomoxir ester dilution in olive oil, n=10) 1 hour before the training (to avoid the MK-801 induced hyperactivity). […] After 20 sec the doors are lifted and the time to enter the black compartment is measured. […]

Male Wistar rats [3] = assay: Chronic mild stress (CMS) model of depression, sucrose consumption test; settings: 4 mg/kg etomoxir in oil i.p. daily
Source text: For a prolonged period rats are submitted to a succession of mild stressors. Consequently rats enter a depression-like state (anhedoina), however, upon concomitant treatment with antidepressants a fraction of rats recovers over time (Jayatissa et al., 2006). Time point of onset of antidepressant action correlates well to therapeutic action in the clinic and also drug efficacy, measured as a reduction in number of rats resistant to drug treatment, is addressed in the model. Male Wistar rats were purchased from Taconic, Denmark. Animal weight was close to 200 g when adaptation for sucrose consumption was initiated, and approximately 350 g at the start of stress regime. The animals were singly housed, except when grouping was applied as a stress parameter. Food and water was available ad libitum except when food or/and water deprivation was applied as a stress parameter. The standard 12-h light/dark cycle was only changed in course of stress regime. The animals were first trained to consume a palatable sucrose solution (1.5%). The training lasted 5 weeks. In this period the sucrose test was made twice a week during the first 3 weeks and once a week during the last two weeks. […] Percentage well being is calculated as follows: Test=Average Sucrose consumption animals in test group Control=Average Sucrose used animal control group Percentage well being=(Test/control)×100%

Row | Compound | Y-maze scores of the animals with nearly perfect memory (Male Wistar rats [1]; Etomoxir 1 mg/kg s.c. with 0.1 mg/kg MK-801, 1 hour before testing) | animals with nearly perfect memory (Male Wistar rats [1]; Etomoxir 1 mg/kg s.c. with 0.1 mg/kg MK-801, 1 hour before testing, n=5) | effect on the induced loss of short term memory (Male Wistar rats [1]; one subcutaneous injection, Etomoxir 1 mg/kg with 0.1 mg/kg MK-801, 1 hour before testing, FIG. 2) | animals with restored long term memory (Male Wistar rats [2]; one subcutaneous injection, etomoxir 1 mg/kg with 0.1 mg/kg MK-801, 1 hour before training, n=10, FIG. 3) [%] | animals responding to the treatment (at least 90% of pre-stress sucrose consumption) (Male Wistar rats [3]; stressed rats n=20, FIG. 6) | time of treatment until animals responded like normal non-depressed animals (percentage well being, sucrose consumption) (Male Wistar rats [3]; stressed rats, earliest time point measured, FIG. 5) [week] | highest Y-maze score in the group (Male Wistar rats [1]; 0.1 mg/kg MK-801 + vehicle s.c., 1 hour before testing, n=8) [%] | animals with measurable long term memory (Male Wistar rats [2]; 0.1 mg/kg MK-801 s.c. 1 hour before training, n=8)
1 | CCOC(=O)C1(CCCCCCOc2ccc(Cl)cc2)CO1 (centres unmarked) [Etomoxir, 2-(6-(4-chlorophenoxy)hexyl)oxirane-2-carboxylic acid ethyl ester] | 92-100% | Sixty | restore the loss of short term memory | 40 | about 70% | ≤ 1 |  | 
2 | C[C@]12N[C@H](Cc3ccccc31)c1ccccc12 [MK-801] |  |  |  |  |  |  | 66 | None
